Laboratory results from US20100204129A1, “USE OF A PEPTIDE AS A THERAPEUTIC AGENT” (priority 2008, published 2010).
Non-standard residues stand in square brackets, D forms with d. Residues, ends and D or L forms follow the SMILES beside them.

Columns and labels:
[1] = test system: Human Peripheral Blood Mononuclear Cells (PBMC); assay: B cell proliferation assay (SAC plus Interleukin-2, 3H-thymidine); format: cell-based; details: peptide 10 micrograms per ml, 3H-thymidine incorporation
Experimental: Human Peripheral Blood Mononuclear Cells (PBMC) were obtained from normal human donors. The B cell proliferation was induced by stimulation of the cells with the B cell mitogen Staphylococcus aureus Cowans I (SAC) plus Interleukin-2, either in the absence (positive proliferation control), or in the presence of test peptide—10 micrograms per ml—to examine their effects on the B cell response. 10^5/well PBMC were plated in 96-well microtiter plates and assayed in duplicate with the peptide. Cell cultures were incubated at 37° C. for 3 days in a 5% CO2 incubator and were thereafter pulsed with 1 microCi/well ^3H-thymidine for additional 12 hours of culture. At the end of incubation time, the plates were harvested and the cells counted by liquid scintillation for the incorporation of ^3H-thymidine as a measure of B cell proliferation.

[2] = test system: RAW 264.7 cells; assay: Phagocytosis assay (Fluorescein-labeled Escherichia coli, flow cytometry); format: cell-based, mouse; details: peptide 10 micrograms per ml, 30 min preincubation, 60 min ingestion
Experimental: RAW 264.7 (Mouse leukaemic monocyte macrophage cell line) cells were obtained from ATCC and grown in RPMI 1640 medium containing 10% FBS. Cells were incubated in 12×75 mm tubes at 37° C. with test peptide—10 micrograms per ml—for 30 min prior to adding Fluorescein-labeled Escherichia coli bacteria as the agent to be ingested. After the cells were incubated for additional 60 min at 37° C. and allowed to ingest the Fluorescein-labeled Escherichia coli bacteria, cells were fixed with 1% paraformaldehyde. The samples were then analyzed by flow cytometry to determine the amount of phagocytosis as a function of brightness (the greater the phagocytic activity, the more fluorescence in the macrophage population). Data are reported as % positive and the mean fluorescence intensity (MFI) of positively stained cells.

[3] = in vitro; details: human
[4] = Cytotoxicity in HIV-1 assay (MTS cell viability); details: human, CEM-SS cells (uninfected, cells plus peptide only)
[5] = test system: spleen cells; assay: Th1/Th2 cytokine profiling assay (Ovalbumin restimulated spleen cells, CBA kit); format: cell-based, Balb/c mice; details: peptide 10 micrograms per ml; Ovalbumin 10 micrograms/ml restimulation; 72 hours
Excerpt: The Balb/c mice (originated in 1923, it is a popular strain and is used in many different research disciplines. Also classified as an inbred from the production of 20 or more successive brother-sister matings, the Balb/c mouse is albino and small in size) were immunized on Days 1, 15, and 29 with Ovalbumin (Ovalbumin is the main protein found in egg white, commonly used to stimulate an immunological reaction in test animals) in PBS (5 micrograms/injection). On day 50, spleens of the mice were harvested (3 weeks after last boost with Ovalbumin). Cells were cultured (2×10^5/well in triplicate) and incubated with culture medium or test peptide—10 micrograms per ml—for 30 min. Thereafter, additional Ovalbumin was added to the cells at 10 micrograms/ml for in vitro restimulation of the cells. 72 hours later, cell supernatants were harvested and assayed using the Becton Dickinson Mouse Th1/Th2 Cytokine CBA Kit. This kit can be used to measure Interleukin-2 (IL-2), Interleukin-4 (IL-4), Interleukin-5 (IL-5), Interferon-γ (IFN-γ), and Tumor Necrosis Factor-α (TNF-α) protein levels in a single sample. The kit performance has been optimized for analysis of physiologically relevant concentrations ([…] levels) of specific cytokine proteins in tissue culture supernatants and serum samples.

[6] = test system: HIV-1IIIB; assay: HIV-1 antiviral assay (CPE reduction, MTS); format: cell-based; details: peptide 10 micrograms per ml, 6 days post-infection
[7] = test system: Human Peripheral Blood Mononuclear Cells (PBMC); assay: T cell proliferation assay (PHA, 3H-thymidine); format: cell-based; details: peptide 10 micrograms per ml, 3H-thymidine incorporation
Experimental: Human Peripheral Blood Mononuclear Cells (PBMC) were obtained from normal human donors. The T cell proliferation was induced by stimulation of the cells with the T cell mitogen phytohemagglutinin (PHA), either in the absence (positive proliferation control), or in the presence of test peptide—10 micrograms per ml—to examine their effects on the T cell proliferating response. 10^5/well PBMC were plated in 96-well microtiter plates and assayed in duplicate with the peptide. Cell cultures were incubated at 37° C. for 3 days in a 5% CO2 incubator and were thereafter pulsed with 1 microCi/well ^3H-thymidine for additional 12 hours of culture. At the end of incubation time, the plates were harvested and the cells counted by liquid scintillation for the incorporation of ^3H-thymidine as a measure of T cell proliferation.

[8] = test system: HCMV strain AD169; assay: HCMV plaque reduction assay in MRC-5 cells; details: HCMV in MRC-5 cells; peptide 10 micrograms per ml; 7-10 days
[9] = Cytotoxicity in HCMV assay (CellTiter 96 cell viability); details: human, MRC-5 cells (embryonal lung fibroblasts)
Experimental: For cytotoxicity testing, MRC-5 cells were seeded at 2,500 cells/well in 96 well plates using growth medium. […] The following day, peptide was added and tested in duplicates. After a 6 days incubation period, cell viability was measured using CellTiter 96 Solution (Promega). Plates were incubated for additional 4 hours at 37° C. Adhesive plate sealers were used in place of lids, the sealed plates were inverted several times to mix the soluble formazan product and the plate was read spectrophotometrically at 490/560 nm with a Molecular Devices Vmax plate reader.

[10] = test system: Primary Human endothelial cells (HUVEC); assay: Endothelial cell migration assay; format: cell-based; details: peptide 10 micrograms per ml, 22 hours
Experimental: Endothelial cell migration is a prerequisite for the process of neo-vascularization or angiogenesis which is crucial for on-site recruitment of blood vessel formation. Primary Human endothelial cells (HUVEC) were seeded in insert chambers with 3 micrometer pore size of multi-transwell plate for 6 hours at 37° C. in Endothelial Cell Basal Medium (EBM) supplemented with 0.1% bovine serum albumin. Thereafter, designated concentration of test peptide—10 micrograms per ml—was added in duplicate wells. The endothelia were allowed to migrate for 22 hours at 37° C., then, migrated cells were fixed and stained with Hoechst 33342 dye. Images of 3 fields per insert were taken and the number of migrated cells per field were quantified using the ImageProPlus software. Data were analyzed for the average number of the migrated cells and standard deviation of six data points for each treatment condition. Active test peptide against HUVEC migration was determined based on 50% inhibition of migrated cells as compared with the control. Statistic p values were computed using the Student's t-test.

[11] = test system: HUVEC; assay: Endothelial tube formation assay; format: cell-based, human; details: peptide 10 micrograms per ml, 20 hours
Experimental: The endothelial tube formation assay is based on the ability of endothelial cells to form three-dimensional capillary-like tubular structures when cultured on a gel of basement membrane extract. The endothelial tube formation assay represents a powerful model for studying inhibition and induction of angiogenesis. Pre-labeled HUVEC with Calcein AM were seeded in a 96-well culture plate coated with extracellular metrix (Chemicon international Cat. ECM625) and treated with test peptide—10 micrograms per ml—in full growth medium. […] control was vehicle only. The endothelial cells were allowed to form tubes for 20 hours and were then examined under an inverted fluorescent microscope. Duplicate wells for each treatment were photographed and quantitatively analyzed for an average tubule length using image analysis software ImageProPlus. Raw data were expressed as average tubule lengths in pixels ±standard deviation. Statistic p values were computed using the Student's t-test.

For `CC(C)C[C@H](NC(=O)[C@H](CC(C)C)NC(=O)[C@@H](Cc1c[nH]c2ccccc12)NC(=O)[C@H](Cc1ccccc1)NC(=O)[C@@H](Cc1c[nH]c2ccccc12)NC(=O)[C@H](CCC(N)=O)NC(=O)[C@H](CCC(N)=O)NC(=O)[C@@H]1CCCN1C(=O)[C@H](CCCCN)NC(=O)[C@@H]1CCCN1C(=O)[C@@H](CCCNC(=N)N)NC(=O)[C@@H]1CCCN1C(=O)CNC(=O)[C@H](CC(C)C)NC(=O)[C@H](CC(C)C)NC(=O)[C@H](Cc1ccc(O)cc1)NC(=O)CNC(=O)[C@H](C)NC(=O)[C@H](CO)NC(=O)[C@H](CC(N)=O)NC(=O)[C@H](CC(C)C)NC(=O)[C@@H](NC(=O)[C@H](Cc1c[nH]c2ccccc12)NC(=O)CN)[C@@H](C)O)C(N)=O` [Spantide-I, Gly-Trp-Thr-Leu-Asn-Ser-Ala-Gly-Tyr-Leu-Leu-Gly-Pro-D-Arg-Pro-Lys-Pro-Gln-Gln-D-Trp-Phe-D-Trp-Leu-Leu-NH2] (H-GWTLNSAGYLLGP[dR]PKPQQ[dW]F[dW]LL-NH2), the “% of SAC/IL2 induced control” value [1] was 106.6%, the “% of control phagocytosis” value [2] was 102.9% and the viability at 144 h, 10 micrograms per ml [3] was 100%. The viability at 10 micrograms per ml [4] was 100%, the “IFNγ spleen cells; TH1 response (% of control)” value [5] was 43.1 % of control and the “IL-2 spleen cells (% of control)” value [5] was 25.9 % of control. The “IL-4 spleen cells; TH2 response (% of control)” value [5] was 40.5 % of control, the “IL-5 spleen cells; TH2 response (% of control)” value [5] was 64.5 % of control and the “TNF-a spleen cells; TH1 response (% of control)” value [5] was 61.9 % of control. The “% CPE reduction in HIV-1 infected CEM-SS cells” value [6] was 0.0%, the “% of PHA induced control” value [7] was 96.3% and the “% plaque reduction” value [8] was 0.0%. The viability at 144 h [9] was 100%, the “% inhibition of migration” value [10] was −25% and the “% inhibition of tube formation” value [11] was 1%.
